Assay results reported in US20100266191A1, “METHOD FOR QUANTIFYING AN UNDERLYING PROPERTY OF A MULTITUDE OF SAMPLES” (priority 2007, published 2010).

Test system: GFP-human Akt3 fusion protein
Test: Akt3/PKBγ Redistribution assay (inhibition of IGF-I-stimulated membrane translocation)
Format: cell-based
Conditions: dose response fit of the estimated process coordinate, two-parameter formula, FIG. 15; IGF-I as reference agonist; read-out: Wortmannin concentration causing 50% changes (a)
Protocol: The Akt3/PKBγ Redistribution® assay from BioImage (http://www.bioimage.com) monitors translocation of GFP-human Akt3 fusion protein from the cytoplasm to the plasma membrane. Insulin-like growth factor-I (IGF-I) is used as reference agonist, and compounds are assayed for their ability to inhibit IGF-I-stimulated membrane translocation of Akt3/PKBγ. In inhibited cells, fluorescence is quite evenly distributed in the cytoplasmic space. In activated cells, there are spots of high intensity on the membrane area. Exemplary images from negative and positive control samples are presented on FIG. 1. […] The measured profiles for a series of positive and negative control samples are presented on FIG. 10. […] The measured profiles aid us in deciding how many segments we create and where their borders are. […] On FIG. 12, mean intensities of the three segments are plotted as read out parameters from images of positive control samples (left) and negative control samples (right). […] It is a linear combination of original intensities determined from the condition given in Eq. 4. […]

**Q.** For `COC[C@H]1OC(=O)c2coc3c2[C@@]1(C)C1=C(C3=O)[C@@H]2CCC(=O)[C@@]2(C)C[C@H]1OC(C)=O` [Wortmannin, wortmannin], which IC50 is on record?
**A.** 0.0364 ± 0.003 µM
